From patent US6723897B2, “Methods for controlling gibberellin levels” (Monsanto Technology, LLC, priority 1998, dated 2004)
“Also recorded” adds a separate entry of the source.

Assays:
[1] = system: wild-type soybean line A3237; assay: Experiment I greenhouse test, seed imbibition, wild-type soybean; settings: 0.25 mg/ml; seeds imbibed 5 hours
[2] = system: constitutively GA-deficient transgenic dwarf soybean line 719; assay: Experiment IV field test, seed imbibition, compacted soil; format: in vivo, Glycine max; settings: for field result on line 719 in words: over the rates tested (0.0025-0.25 mg/ml); for No. of Dwarfs Not Rescued / Total Plants: imbibed 8 hours; for Total Plants: 25 seeds planted; for % of Dwarfs Rescued: relative to 8.5 true dwarfs per plot
From the text: The objective of these experiments is to determine if there is a greenhouse to field translation of results with selected GA compounds with respect to rescue of constitutively GA-deficient transgenic dwarf soybeans and elongation of wild-type plants. […] For the first field trial, the solutions previously used for the second greenhouse test, and stored in the freezer, are employed. […] For comparison, freshly prepared solutions of GA3 are also employed. The compounds tested included kaurenoic acid, fresh GA3, stored GA3, GA3-3-acetate, GA5, GA9, and GA12. […] Seeds of line […] are imbibed for 8 hours. Untreated dry seeds served as controls. After imbibition, the remaining solutions are returned to the freezer. Seeds are kept on the benchtop at room temperature overnight. […] Untreated dry seeds served as controls. Following planting line 719, all plots (both […] and line 719) are compacted by driving an all-terrain vehicle over the planted rows twice, and watered. All GA solutions are discarded. The results are shown in Table 15 for constitutively GA-deficient transgenic dwarf line 719 only as insufficient […] germinated to make any useful observations. Observations included number of plants that germinated, number rescued, and visual observations. Two points should be noted concerning the data in Table 15. […] Next, the number of dwarfs not rescued in any treatment is subtracted from 8.5.

[3] = system: constitutively GA-deficient transgenic dwarf soybean line 719; assay: Fifth and sixth field tests, emergence after seed imbibition; format: in vivo, Glycine max; settings: for Total Emerged: 50 seeds imbibed 5 hours
Protocol: Fresh stock solutions of compounds are prepared for this test. Kaurenoic acid is tested at 0.025 and 0.25 mg/ml; GA3 is tested at 0.025, 0.25, and 0.5 mg/ml; GA3-3-acetate at 0.025 and 0.25 mg/ml; GA5 at 0.025 and 0.25 mg/ml; GA9 at 0.025 and 0.04 mg/ml; and GA12 at 0.025 and 0.25 mg/ml. Stock solutions are prepared in ethanol in 50 ml plastic centrifuge tubes; deionized water is then added to make up the volumes to 30 ml. The final solutions contained 300 μl ethanol in 30 mls. […] Seeds are imbibed for 6 hours, and planted 1″ deep in a single row in moist to wet soil. They are then covered with dry soil, and the row is compacted twice with an all-terrain vehicle. Untreated dry seeds served as controls. The GA solutions are placed on dry ice until reuse the next day.
The next day, additional seeds of constitutive transgenic dwarf line 719 (50 seeds/treatment) are imbibed in the remaining treatment solutions for 5 hours, and planted in moist soil. The rows are compacted twice.

[4] = system: GA-deficient transgenic soybean line 719 (R5); assay: Hilum treatment of soybean seeds, seedling growth and development, GA-deficient soybean; format: in vivo, Glycine max; design: key to Emergence timing / Hypocotyl length (6 DAP) / 1st internode length (12 DAP) / 3rd internode length (20 DAP) / 2nd internode length (12 DAP): pos: emergence faster/stem segment longer than controls; 0: emergence timing/stem segment length similar to controls; neg: emergence slower/stem segment shorter than controls; settings: for 1st internode length (12 DAP) / Emergence timing / Hypocotyl length (6 DAP): single rate per compound 8.3-16.5 μg/seed; for 2nd internode length (12 DAP) / 3rd internode length (20 DAP): single rate per compound 9.7-16.5 μg/seed
Method in brief: (§1)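 GA compounds dissolved in ethanol were applied as 1 μl droplets, each dried before the next, to the hilum of GA-deficient transgenic line 719 (R5) or wild-type soybean seeds; ethanol alone served as control. Emergence was scored over time as cotyledons at or above soil level, with growth measured after prolonged development.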

[5] = system: wild-type A3237 soybean; assay: Hilum treatment of soybean seeds, seedling growth and development, wild-type soybean; format: in vivo, Glycine max; design: key to Emergence timing / Hypocotyl length (6 DAP) / 1st internode length (12 DAP) / 3rd internode length (20 DAP): pos: emergence faster/stem segment longer than controls; 0: emergence timing/stem segment length similar to controls; neg: emergence slower/stem segment shorter than controls; settings: for 1st internode length (12 DAP) / Emergence timing / Hypocotyl length (6 DAP): single rate per compound 8.3-16.5 μg/seed
Method in brief: as §1

[6] = L719, hilum treatment, rate response

Structure (SMILES)	Observation on Wild-Type Line A3237 [1]	field result on line 719 in words [2]	No. of Dwarfs Not Rescued ([2]; stored solution 0.0025 mg/ml)	Total Plants ([2]; stored solution 0.0025 mg/ml)	% of Dwarfs Rescued ([2]; stored solution 0.0025 mg/ml) [%]	No. of Dwarfs Not Rescued ([2]; stored solution 0.025 mg/ml)	Total Plants ([2]; stored solution 0.025 mg/ml)	% of Dwarfs Rescued ([2]; stored solution 0.025 mg/ml) [%]	Visual Observations on Transgenic Line 719 ([2]; stored solution 0.25 mg/ml)	No. of Dwarfs Not Rescued ([2]; stored solution 0.25 mg/ml)	Total Plants ([2]; stored solution 0.25 mg/ml)	% of Dwarfs Rescued ([2]; stored solution 0.25 mg/ml) [%]	Visual Observations on Transgenic Line 719 ([3]; 0.025 mg/ml)	Total Emerged ([3]; 0.025 mg/ml)	1st internode length (12 DAP) ([4]; L719, hilum treatment)	Emergence timing ([4]; L719, hilum treatment)	Hypocotyl length (6 DAP) ([4]; L719, hilum treatment)	1st internode length (12 DAP) [5]	Emergence timing [5]	Hypocotyl length (6 DAP) [5]	also measured
C=C1C[C@]23C[C@H]1CC[C@H]2[C@@]12CCC[C@@](C)(C(=O)O1)[C@H]2[C@@H]3C(=O)O [GA9]	3	slight elongation, and no uniformity in height	7	20	17.6	0	22	100	Slightly elongated plants	0	17	100	good emergence with good rescue; also recorded: No dwarfs in plots	24	pos	pos	pos	0	pos	pos	Total Emerged ([3]; 0.04 mg/ml): 11; Lowest rate where biological activity is observed, 1st internode length (10 DAP) [4, 6]: 10 μg/seed; Lowest rate where biological activity is observed, emergence timing [4, 6]: 0.1 μg/seed; Lowest rate where biological activity is observed, hypocotyl length (5 DAP) [4, 6]: 0.1 μg/seed; 2nd internode length (12 DAP) ([4]; L719, hilum treatment): 0; 3rd internode length (20 DAP) ([4]; L719, hilum treatment): 0; Lowest rate where biological activity is observed, 1st internode length (10 DAP) ([5]; rate response): 1 μg/seed; Lowest rate where biological activity is observed, emergence timing ([5]; rate response): 0.1 μg/seed; Lowest rate where biological activity is observed, hypocotyl length (5 DAP) ([5]; rate response): 1 μg/seed
C=C1C[C@]23C[C@@]1(O)CC[C@H]2[C@@]12CC=C[C@@](C)(C(=O)O1)[C@H]2[C@@H]3C(=O)O [GA5]	4	slight to excessive elongation, and no uniformity in plant height	8	25	5.9	0	20	100	Extremely elongated plants	0	7	100	good emergence with good rescue	21	pos	pos	pos	pos	pos	pos	Total Emerged ([3]; 0.25 mg/ml): 3; Lowest rate where biological activity is observed, 1st internode length (10 DAP) [4, 6]: 1 μg/seed; Lowest rate where biological activity is observed, 3rd internode length (20 DAP) [4, 6]: >1 μg/seed; Lowest rate where biological activity is observed, emergence timing [4, 6]: 1 μg/seed; Lowest rate where biological activity is observed, hypocotyl length (5 DAP) [4, 6]: 0.1 μg/seed; 2nd internode length (12 DAP) ([4]; L719, hilum treatment): pos; 3rd internode length (20 DAP) ([4]; L719, hilum treatment): pos; rate giving increased internode elongation at internode number 3 ([4]; hilum): greater than or equal to 1 μg/seed; biological activity on the first internode of line 719 compared to GA3 and GA9 ([4]; hilum, rate response): approximately 10 times more; stem elongation past the first internode ([4]; initial seed dose approximately 10 μg/seed, hilum): measurable increases in internode length up to the third internode; 3rd internode length (20 DAP) ([5]; rate 9.7 μg/seed): pos; Lowest rate where biological activity is observed, 1st internode length (10 DAP) ([5]; rate response): 1 μg/seed; Lowest rate where biological activity is observed, 3rd internode length (20 DAP) ([5]; rate response): 1 μg/seed; Lowest rate where biological activity is observed, emergence timing ([5]; rate response): 0.1 μg/seed; Lowest rate where biological activity is observed, hypocotyl length (5 DAP) ([5]; rate response): 1 μg/seed
C=C1C[C@@]23CC[C@H]4[C@@](C)(CCC[C@@]4(C)C(=O)O)[C@@H]2CC[C@@H]1C3 [kaurenoic acid]	0	poor uniformity in plant height	5	23	41.2	4	17	52.9	–	6	22	29.4	Poor rescue	20	0	pos	0	0	0	0	Visual Observations on Transgenic Line 719 ([3]; 0.25 mg/ml): Poor stand; Total Emerged ([3]; 0.25 mg/ml): 10
